Like-named read-outs stand apart in the source and are kept apart here.
Columns and labels:
[1] = Solubility of curcumin in water and methanol; type: physicochemical
Text: In a first experiment curcumin powder, purchased from Sigma Aldrich, was used as the organic source material. The curcumin powder was formed into a pellet of target material by compression in a 0.5 inch in diameter mold using three tons of pressure. The curcumin pellet was then ablated according to the present invention using deionized water as the liquid. The flow rate of the liquid in the container was about 80 milliliters per second. The curcumin pellet was ablated using an ultrafast pulsed laser having a wavelength of 1045 nanometers, using a pulse duration of 500 femtoseconds, a pulse energy of 1 microJoules, a power of 1 W and a pulse repetition rate of 1 MHz. The laser focus spot size was about 30 micrometers in diameter and the fluence is calculated at about 0.14 Joules/cm^2. The frequency of the vibrating mirror was 50 Hz with a 4 millimeter trace for 0.4 meters per second. […] The hydrocolloidal contains some large particles as evidenced by the spread of the peak and the background absorbance of the curve. The y-axis is the absorption and the x-axis is the wavelength. […] In addition, 0.1 milliliters of the curcumin nanoparticle hydrocolloidal prepared according to the present invention was mixed with 1.0 milliliters of methanol. […]

[2] = background statement; cited from earlier work

- solubility in methanol ([1]; methanol, powder dissolved at 2.5×10^−5 M): dissolvable in methanol
- solubility in water ([1]; water): does not dissolve in water
SMILES: COc1cc(C=CC(=O)CC(=O)C=Cc2ccc(O)c(OC)c2)ccc1O [curcumin, 1,7-bis(4-hydroxy-3-methoxyphenyl)-1,6-heptadiene-3,5-dione]
- solubility in water [2]: not water soluble

Source: patent US8992815B2, “Production of organic compound nanoparticles with high repetition rate ultrafast pulsed laser ablation in liquids” (IMRA America, Inc., priority 2010, dated 2015)
